Experimental data: patent publication US20070128217A1 (priority 2003, published 2007)

Assays:
[1] = test system: antibodies in sera from SARS patients (sera 1a, 1b, 2, 6, 37, 62, London, SARS-yellow, SARS-green); format: binding, human; design: Binding of serum 6 to linear peptides of protein X1 of SARS-CoV Urbani / Binding of serum 37 to linear peptides of protein X1 of SARS-CoV Urbani / Binding of serum 6 to looped/cyclic peptide (PEPSCAN-ELISA) / Binding of serum 37 to looped/cyclic peptide (PEPSCAN-ELISA) / Binding of serum 37 to looped/cyclic peptides of protein X1 of SARS-CoV Urbani / Binding of serum 6 to linear peptides of protein X2 / Binding of serum 37 to linear peptides of protein X2 / Binding of serum 37 to looped/cyclic peptides of protein X2 of SARS-CoV Urbani / Binding of serum 6 to linear peptides of protein M of SARS-CoV Urbani / Binding of serum 37 to linear peptides of protein M of SARS-CoV Urbani / Binding of serum 6 to looped/cyclic peptides of protein M of SARS-CoV Urbani / Binding of serum 37 to looped/cyclic peptides of protein M of SARS-CoV Urbani / Binding of serum 6 to linear peptides of protein X3 of SARS-CoV Urbani / Binding of serum 37 to linear peptides of protein X3 of SARS-CoV Urbani / Binding of serum 37 to looped/cyclic peptides of protein X3 of SARS-CoV Urbani / Binding of serum 6 to linear peptides of protein X4 of SARS-CoV Urbani / Binding of serum 37 to linear peptides of protein X4 of SARS-CoV Urbani / Binding of serum 37 to looped/cyclic peptides of protein X4 of SARS-CoV Urbani / Binding of serum 6 to linear peptides of protein X5 of SARS-CoV Urbani / Binding of serum 37 to linear peptides of protein X5 of SARS-CoV Urbani / Binding of serum 37 to looped/cyclic peptides of protein X5 of SARS-CoV Urbani / Binding of serum 6 to linear peptides of protein N of SARS-CoV Urbani / Binding of serum 37 to linear peptides of protein N of SARS-CoV Urbani / Binding of serum 6 to linear peptide (PEPSCAN-ELISA) / Binding of serum 1a to looped/cyclic peptides of protein N of SARS-CoV Urbani / Binding of serum 1b to looped/cyclic peptides of protein N of SARS-CoV Urbani / Binding of serum 2 to looped/cyclic peptides of protein N of SARS-CoV Urbani / Binding of serum 6 to looped/cyclic peptides of protein N of SARS-CoV Urbani / Binding of serum 37 to looped/cyclic peptides of protein N of SARS-CoV Urbani / Binding of serum 62 to looped/cyclic peptides of protein N of SARS-CoV Urbani / Binding of serum London to looped/cyclic peptides of protein N of SARS-CoV Urbani / Binding of serum SARS-green to looped/cyclic peptides of protein N of SARS-CoV Urbani: unit not given here
[2] = test system: control sera (pooled serum of ten healthy LUMC hospital workers; commercial negative donor pooled serum from the Dutch bloodbank); format: binding, human; design: Binding of Control serum LUMC to linear peptides / Binding of Control serum Blood-bank to linear peptides / Binding of Control serum LUMC to looped peptides / Binding of Control Serum Blood-Bank to Looped peptides / Binding of Control serum LUMC to linear peptides of the protein M of SARS-CoV Urbani / Binding of Control serum Blood-bank to linear peptides of the protein M of SARS-CoV Urbani / Binding of Control serum LUMC to looped peptides of the protein M of SARS-CoV Urbani / Binding of Control Serum Blood-Bank to Looped peptides of the protein M of SARS-CoV Urbani: unit not given here
[3] = test system: rabbit serum obtained by immunizing a rabbit with the SARS-CoV strain Frankfurt 1; format: binding; design: Binding of a rabbit serum to linear peptides / Binding of a rabbit serum to looped peptides / Rabbit serum linear peptides / Rabbit serum looped peptides / Binding of a rabbit serum to linear peptides of protein N of SARS-CoV Urbani (Rabbit serum linear peptides) / Binding of a rabbit serum to looped/cyclic peptides of protein N of SARS-CoV Urbani (Rabbit serum looped peptides): unit not given here
[4] = test system: recombinant human anti-SARS-CoV antibody 03-018; format: binding; design: Binding of antibody 03-018 to linear peptides of the N protein of SARS-CoV Urbani / Binding of antibody 03-018 to looped/cyclic peptides of the N protein of SARS-CoV Urbani: unit not given here

Row | Sequence | Binding of serum 1a to linear peptides of protein N of SARS-CoV Urbani [1] | Binding of serum 1a to looped/cyclic peptides of protein N of SARS-CoV Urbani [1] | Binding of serum 1b to linear peptides of protein N of SARS-CoV Urbani [1] | Binding of serum 1b to looped/cyclic peptides of protein N of SARS-CoV Urbani [1] | Binding of serum 2 to linear peptides of protein N of SARS-CoV Urbani [1] | Binding of serum 2 to looped/cyclic peptides of protein N of SARS-CoV Urbani [1] | Binding of serum 6 to linear peptides of protein N of SARS-CoV Urbani [1] | Binding of serum 6 to looped/cyclic peptides of protein N of SARS-CoV Urbani [1] | Binding of serum 37 to linear peptides of protein N of SARS-CoV Urbani [1] | Binding of serum 37 to looped/cyclic peptides of protein N of SARS-CoV Urbani [1] | Binding of serum 62 to linear peptides of protein N of SARS-CoV Urbani [1] | Binding of serum 62 to looped/cyclic peptides of protein N of SARS-CoV Urbani [1] | Binding of serum London to linear peptides of protein N of SARS-CoV Urbani [1] | Binding of serum London to looped/cyclic peptides of protein N of SARS-CoV Urbani [1] | Binding of serum SARS-green to looped/cyclic peptides of protein N of SARS-CoV Urbani [1] | Binding of serum SARS-yellow to looped/cyclic peptides of protein N of SARS-CoV Urbani [1] | Binding of a rabbit serum to linear peptides of protein N of SARS-CoV Urbani (Rabbit serum linear peptides) [3] | Binding of a rabbit serum to looped/cyclic peptides of protein N of SARS-CoV Urbani (Rabbit serum looped peptides) [3] | Binding of antibody 03-018 to linear peptides of the N protein of SARS-CoV Urbani [4] | Binding of antibody 03-018 to looped/cyclic peptides of the N protein of SARS-CoV Urbani [4] | further results
1 | FPPTEPKKDKKKKTD | 0.2 | 0.2 | 0.1 | 0.1 | 1.3 | 0.2 | 0.2 | 0.1 | 0.6 | 0.4 | 0.7 | 0.2 | 0.6 | 0.2 | 0.0 | 0.1 | 0.1 | 0.1 | 0.1 | 0.2 | Binding of serum SARS-green to linear peptides of protein N of SARS-CoV Urbani [1]: 0.1; Binding of serum SARS-yellow to linear peptides of protein N of SARS-CoV Urbani [1]: 0.6; Control Serum Blood-Bank Looped peptides [2]: 0.4; Control serum Blood-bank linear peptides [2]: 0.6; Control serum LUMC linear peptides [2]: 0.6; Control serum LUMC looped peptides [2]: 0.3
2 | FPRGQGVPINTNSGP | 0.2 | 0.3 | 0.1 | 0.2 | 0.3 | 0.4 | 0.2 | 0.2 | 0.7 | 0.5 | 0.6 | 0.4 | 0.5 | 0.4 | 0.4 | 0.4 | 0.2 | 0.2 | 0.1 | 0.2 | Binding of serum SARS-green to linear peptides of protein N of SARS-CoV Urbani [1]: 0.3; Binding of serum SARS-yellow to linear peptides of protein N of SARS-CoV Urbani [1]: 0.6; Binding of Control Serum Blood-Bank to Looped peptides [2]: 0.6; Binding of Control serum Blood-bank to linear peptides [2]: 0.8; Binding of Control serum LUMC to linear peptides [2]: 0.7; Binding of Control serum LUMC to looped peptides [2]: 0.5
3 | FYAEGSRGGSQASSR |  | 0.3 |  | 0.2 |  | 0.4 |  | 0.3 |  | 0.6 |  | 0.6 |  | 0.4 | 0.4 | 0.3 | 0.3 | 0.4 | 0.1 | 0.1 | Binding of serum 1a to linear peptide (PEPSCAN-ELISA) [1]: 0.3; Binding of serum 1b to linear peptide (PEPSCAN-ELISA) [1]: 0.2; Binding of serum 2 to linear peptide (PEPSCAN-ELISA) [1]: 0.2; Binding of serum 6 to linear peptide (PEPSCAN-ELISA) [1]: 0.3; Binding of serum 37 to linear peptide (PEPSCAN-ELISA) [1]: 0.7; Binding of serum 62 to linear peptide (PEPSCAN-ELISA) [1]: 0.8; Binding of serum London to linear peptide (PEPSCAN-ELISA) [1]: 0.5; Binding of serum SARS-green to linear peptide (PEPSCAN-ELISA) [1]: 0.4; Binding of serum SARS-yellow to linear peptide (PEPSCAN-ELISA) [1]: 0.6; Binding of Control Serum Blood-Bank to Looped peptides [2]: 0.6; Binding of Control serum Blood-bank to linear peptides [2]: 0.8; Binding of Control serum LUMC to linear peptides [2]: 0.7; Binding of Control serum LUMC to looped peptides [2]: 0.8
